Test results from PubChem BioAssay AID1963839 (Molecular Pharmacology Branch, DTP, NCI, 2024).

Tested on: 817829-284-R-J1-PDC complex spheroid viability
Assay: Anticancer human tumor 817829-284-R-J1-PDC patient-derived colon adenocarcinoma cell line growth inhibition [POLQ]
Settings: for IC50: curve of first compound; for viability, T/C: stronger effect = lower value
Summary of the method: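 Complex spheroid viability model combining PDC tumour cells with endothelial (HUVEC) and MSC stromal cells. Novobiocin, ART-558 or RP6685 were tested singly and in combination with standard and investigational anticancer drugs. Each was titrated in half-log steps from near clinical Cmax, or from 10 microM where Cmax was unknown.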

[1] = second compound 0.0316 µM, first compound 0.0316 µM
[2] = second compound 0.0316 µM, first compound 0.1 µM
[3] = second compound 0.0316 µM, first compound 0.316 µM
[4] = second compound 0.0316 µM, first compound 1 µM
[5] = second compound 0.0316 µM, first compound 3.16 µM
[6] = second compound 0.0316 µM, first compound 10 µM
[7] = second compound 0.1 µM, first compound 0.0316 µM
[8] = second compound 0.1 µM, first compound 0.1 µM
[9] = second compound 0.1 µM, first compound 0.316 µM
[10] = second compound 0.1 µM, first compound 1 µM
[11] = second compound 0.1 µM, first compound 3.16 µM
[12] = second compound 0.1 µM, first compound 10 µM
[13] = second compound 0.316 µM, first compound 0.0316 µM
[14] = second compound 0.316 µM, first compound 0.1 µM
[15] = second compound 0.316 µM, first compound 0.316 µM
[16] = second compound 0.316 µM, first compound 1 µM
[17] = second compound 0.316 µM, first compound 3.16 µM
[18] = second compound 0.316 µM, first compound 10 µM
[19] = second compound 1 µM, first compound 0.0316 µM
[20] = second compound 1 µM, first compound 0.1 µM
[21] = second compound 1 µM, first compound 0.316 µM
[22] = second compound 1 µM, first compound 1 µM
[23] = second compound 1 µM, first compound 3.16 µM
[24] = second compound 1 µM, first compound 10 µM
[25] = second compound 3.16 µM, first compound 0.0316 µM
[26] = second compound 3.16 µM, first compound 0.1 µM
[27] = second compound 3.16 µM, first compound 0.316 µM
[28] = second compound 3.16 µM, first compound 1 µM
[29] = second compound 3.16 µM, first compound 3.16 µM
[30] = second compound 3.16 µM, first compound 10 µM
[31] = second compound 10 µM, first compound 0.0316 µM
[32] = second compound 10 µM, first compound 0.1 µM
[33] = second compound 10 µM, first compound 0.316 µM
[34] = second compound 10 µM, first compound 1 µM
[35] = second compound 10 µM, first compound 3.16 µM
[36] = second compound 10 µM, first compound 10 µM
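Note: spheroids exposed to compounds for 7 days.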
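Throughout, for viability, T/C: 100% = DMSO vehicle-treated spheroids.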

SMILES: COc1cccc2c1C(=O)c1c(O)c3c(c(O)c1C2=O)CC(O)(C(=O)CO)CC3OC1CC(N)C(O)C(C)O1 (centres undefined) + Cc1cccc(N(C)C(=O)C2C(O)CCN2c2nc(C)cc(C(F)(F)F)c2C#N)c1
- IC50 (second compound 0.0316 µM): < 31.6 nM
- IC50 (second compound 0.1 µM): < 31.6 nM
- IC50 (second compound 0.316 µM): < 31.6 nM
- IC50 (second compound 1 µM): < 31.6 nM
- IC50 (second compound 3.16 µM): < 31.6 nM
- IC50 (second compound 10 µM): < 31.6 nM
- viability, T/C [1]: 20.6%
- viability, T/C [2]: 18.4%
- viability, T/C [3]: 6.01%
- viability, T/C [4]: 0.9%
- viability, T/C [5]: 0.17%
- viability, T/C [6]: 0.48%
- viability, T/C [7]: 21.8%
- viability, T/C [8]: 15.9%
- viability, T/C [9]: 7.06%
- viability, T/C [10]: 0.26%
- viability, T/C [11]: 0.22%
- viability, T/C [12]: 0.58%
- viability, T/C [13]: 20.2%
- viability, T/C [14]: 17.8%
- viability, T/C [15]: 6.56%
- viability, T/C [16]: 0.38%
- viability, T/C [17]: 0.19%
- viability, T/C [18]: 0.58%
- viability, T/C [19]: 21.2%
- viability, T/C [20]: 14.6%
- viability, T/C [21]: 6.03%
- viability, T/C [22]: 0.54%
- viability, T/C [23]: 0.29%
- viability, T/C [24]: 0.51%
- viability, T/C [25]: 20.1%
- viability, T/C [26]: 17.9%
- viability, T/C [27]: 3.35%
- viability, T/C [28]: 0.34%
- viability, T/C [29]: 0.32%
- viability, T/C [30]: 0.6%
- viability, T/C [31]: 17.4%
- viability, T/C [32]: 12.3%
- viability, T/C [33]: 4.14%
- viability, T/C [34]: 0.48%
- viability, T/C [35]: 0.3%
- viability, T/C [36]: 0.5%

SMILES: Nc1ccn(C2OC(CO)C(O)C2(F)F)c(=O)n1 (centres undefined) + Cc1cccc(N(C)C(=O)C2C(O)CCN2c2nc(C)cc(C(F)(F)F)c2C#N)c1
- IC50 (second compound 0.0316 µM): < 31.6 nM
- IC50 (second compound 0.1 µM): < 31.6 nM
- IC50 (second compound 0.316 µM): < 31.6 nM
- IC50 (second compound 1 µM): < 31.6 nM
- IC50 (second compound 3.16 µM): < 31.6 nM
- IC50 (second compound 10 µM): < 31.6 nM
- viability, T/C [1]: 4.93%
- viability, T/C [2]: 6.34%
- viability, T/C [3]: 5.78%
- viability, T/C [4]: 4.47%
- viability, T/C [5]: 4.13%
- viability, T/C [6]: 3%
- viability, T/C [7]: 5.1%
- viability, T/C [8]: 4.91%
- viability, T/C [9]: 5.63%
- viability, T/C [10]: 4.62%
- viability, T/C [11]: 3.58%
- viability, T/C [12]: 2.89%
- viability, T/C [13]: 6.1%
- viability, T/C [14]: 5.35%
- viability, T/C [15]: 5.35%
- viability, T/C [16]: 5.17%
- viability, T/C [17]: 4.11%
- viability, T/C [18]: 2.77%
- viability, T/C [19]: 4.92%
- viability, T/C [20]: 5.99%
- viability, T/C [21]: 4.9%
- viability, T/C [22]: 4.77%
- viability, T/C [23]: 3.54%
- viability, T/C [24]: 2.95%
- viability, T/C [25]: 5.03%
- viability, T/C [26]: 5.55%
- viability, T/C [27]: 6.02%
- viability, T/C [28]: 4.31%
- viability, T/C [29]: 4.69%
- viability, T/C [30]: 3.24%
- viability, T/C [31]: 6.79%
- viability, T/C [32]: 5.07%
- viability, T/C [33]: 5.13%
- viability, T/C [34]: 4.16%
- viability, T/C [35]: 4.17%
- viability, T/C [36]: 2.99%
